Source: ChEMBL document CHEMBL1201862, “PubChem BioAssay data set” (2004)
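In this assay, cells in 96-well plates receive the compound at five concentrations for 48 hours. Endpoints are linearly interpolated between the surrounding concentrations. GI50: concentration for 50% inhibition of growth.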 Activity calls are given as the source filed them. Rule as the data show it: active = GI50 up to about 1.1 µM and inactive = higher.

How the values were obtained:
Experiment in all cases: growth of human tumour cells (NCI), 48 h
[1] = test system: M14
[2] = test system: NCI-H23
[3] = test system: SF-539
[4] = test system: MDA-MB-231
[5] = test system: HOP-92
[6] = test system: RPMI-8226
[7] = test system: HT-29
[8] = test system: BT-549
[9] = test system: EKVX
[10] = test system: NCI-H460
[11] = test system: 786-0
[12] = test system: MDA-N
[13] = test system: UACC-62
[14] = test system: RXF 393
[15] = test system: HOP-62
[16] = test system: SW-620
[17] = test system: SK-OV-3
[18] = test system: NCI-H522
[19] = test system: SK-MEL-28
[20] = test system: A549
[21] = test system: PC-3
[22] = test system: MDA-MB-435
[23] = test system: OVCAR-4
[24] = test system: HCC 2998
[25] = test system: SNB-19
[26] = test system: ACHN
[27] = test system: SF-295
[28] = test system: CCRF-CEM
[29] = test system: UO-31
[30] = test system: Hs-578T
[31] = test system: HCT-15
[32] = test system: A498
[33] = test system: OVCAR-5
[34] = test system: SN12C
[35] = test system: DU-145
[36] = test system: IGROV-1
[37] = test system: OVCAR-3
[38] = test system: KM12
[39] = test system: K562
[40] = test system: NCI/ADR-RES
[41] = test system: MOLT-4
[42] = test system: NCI-H226
[43] = test system: TK-10
[44] = test system: SR
[45] = test system: SK-MEL-5
[46] = test system: COLO 205
[47] = test system: Malme-3M
[48] = test system: OVCAR-8
[49] = test system: HCT-116
[50] = test system: U-251
[51] = test system: CAKI-1
[52] = test system: SF-268
[53] = test system: UACC-257
[54] = test system: SK-MEL-2
[55] = test system: MCF7
[56] = test system: T47D
[57] = test system: LOX IMVI
[58] = test system: SNB-75
[59] = test system: HL-60

c1ccc2c[n+](Cc3ccnc4ccccc34)ccc2c1
GI50 [1]: > 100 µM (inactive)
GI50 [2]: > 100 µM (inactive)
GI50 [3]: > 100 µM (inactive)
GI50 [4]: > 100 µM (inactive)
GI50 [5]: 97.7 µM (inactive)
GI50 [6]: > 100 µM (inactive)
GI50 [7]: 51.8 µM (inactive)
GI50 [8]: > 100 µM (inactive)
GI50 [9]: 71 µM (inactive)
GI50 [10]: > 100 µM (inactive)
GI50 [11]: > 100 µM (inactive)
GI50 [12]: > 100 µM (inactive)
GI50 [13]: > 100 µM (inactive)
GI50 [14]: > 100 µM (inactive)
GI50 [15]: > 100 µM (inactive)
GI50 [16]: > 100 µM (inactive)
GI50 [17]: > 100 µM (inactive)
GI50 [18]: > 100 µM (inactive)
GI50 [19]: > 100 µM (inactive)
GI50 [20]: > 100 µM (inactive)
GI50 [21]: > 100 µM (inactive)
GI50 [22]: > 100 µM (inactive)
GI50 [23]: > 100 µM (inactive)
GI50 [24]: > 100 µM (inactive)
GI50 [25]: > 100 µM (inactive)
GI50 [26]: > 100 µM (inactive)
GI50 [27]: > 100 µM (inactive)
GI50 [28]: > 100 µM (inactive)
GI50 [29]: > 100 µM (inactive)
GI50 [30]: > 100 µM (inactive)
GI50 [31]: > 100 µM
GI50 [32]: > 100 µM (inactive)
GI50 [33]: > 100 µM (inactive)
GI50 [34]: > 100 µM (inactive)
GI50 [35]: > 100 µM (inactive)
GI50 [36]: > 100 µM (inactive)
GI50 [37]: 67 µM (inactive)
GI50 [38]: > 100 µM (inactive)
GI50 [39]: > 100 µM (inactive)
GI50 [40]: > 100 µM (inactive)
GI50 [41]: > 100 µM (inactive)
GI50 [42]: 41.8 µM (inactive)
GI50 [43]: > 100 µM (inactive)
GI50 [44]: > 100 µM (inactive)
GI50 [45]: 42.8 µM (inactive)
GI50 [46]: 67.1 µM (inactive)
GI50 [47]: > 100 µM (inactive)
GI50 [48]: > 100 µM (inactive)
GI50 [49]: > 100 µM (inactive)
GI50 [50]: > 100 µM (inactive)
GI50 [51]: > 100 µM (inactive)
GI50 [52]: > 100 µM (inactive)
GI50 [53]: > 100 µM (inactive)
GI50 [54]: > 100 µM (inactive)
GI50 [55]: > 100 µM (inactive)
GI50 [56]: > 100 µM (inactive)
GI50 [57]: > 100 µM (inactive)

COc1ccc2[nH]c3c(c2c1)CCc1ccccc1-3
GI50 [1]: > 100 µM (inactive)
GI50 [2]: 41.7 µM (inactive)
GI50 [3]: 16.7 µM (inactive)
GI50 [4]: 20.2 µM (inactive)
GI50 [5]: 51.2 µM (inactive)
GI50 [7]: > 100 µM (inactive)
GI50 [8]: > 100 µM (inactive)
GI50 [9]: 17.6 µM (inactive)
GI50 [10]: 30.8 µM (inactive)
GI50 [11]: 50.7 µM (inactive)
GI50 [12]: > 100 µM (inactive)
GI50 [13]: > 100 µM (inactive)
GI50 [15]: 35.2 µM (inactive)
GI50 [16]: > 100 µM (inactive)
GI50 [17]: 40.9 µM (inactive)
GI50 [18]: 26.7 µM (inactive)
GI50 [19]: > 100 µM (inactive)
GI50 [20]: > 100 µM (inactive)
GI50 [21]: 52.8 µM (inactive)
GI50 [22]: > 100 µM (inactive)
GI50 [58]: 26.1 µM (inactive)
GI50 [23]: 37.6 µM (inactive)
GI50 [24]: 64.3 µM (inactive)
GI50 [25]: 81.3 µM (inactive)
GI50 [26]: > 100 µM (inactive)
GI50 [27]: 32.8 µM (inactive)
GI50 [28]: > 100 µM (inactive)
GI50 [29]: 70.1 µM (inactive)
GI50 [30]: 17.4 µM (inactive)
GI50 [31]: 70.5 µM
GI50 [33]: > 100 µM (inactive)
GI50 [34]: > 100 µM (inactive)
GI50 [35]: > 100 µM (inactive)
GI50 [36]: 19.8 µM (inactive)
GI50 [37]: > 100 µM (inactive)
GI50 [38]: 32.4 µM (inactive)
GI50 [39]: > 100 µM (inactive)
GI50 [40]: 40.4 µM (inactive)
GI50 [41]: 80.9 µM (inactive)
GI50 [42]: > 100 µM (inactive)
GI50 [43]: > 100 µM (inactive)
GI50 [44]: 84.9 µM (inactive)
GI50 [45]: > 100 µM (inactive)
GI50 [46]: > 100 µM (inactive)
GI50 [47]: 39.2 µM (inactive)
GI50 [48]: 27.7 µM (inactive)
GI50 [49]: > 100 µM (inactive)
GI50 [50]: 30.3 µM (inactive)
GI50 [51]: > 100 µM (inactive)
GI50 [52]: 38.7 µM (inactive)
GI50 [53]: > 100 µM (inactive)
GI50 [54]: > 100 µM (inactive)
GI50 [55]: 79.3 µM (inactive)
GI50 [56]: > 100 µM (inactive)
GI50 [57]: 78.9 µM (inactive)

CN(CC(=O)O)CC(=O)O
GI50 [1]: > 100 µM (inactive)
GI50 [2]: > 100 µM (inactive)
GI50 [3]: > 100 µM (inactive)
GI50 [4]: > 100 µM (inactive)
GI50 [5]: > 100 µM (inactive)
GI50 [6]: > 100 µM (inactive)
GI50 [7]: > 100 µM (inactive)
GI50 [8]: > 100 µM (inactive)
GI50 [9]: > 100 µM (inactive)
GI50 [10]: > 100 µM (inactive)
GI50 [11]: > 100 µM (inactive)
GI50 [12]: > 100 µM (inactive)
GI50 [13]: > 100 µM (inactive)
GI50 [14]: > 100 µM (inactive)
GI50 [15]: > 100 µM (inactive)
GI50 [16]: > 100 µM (inactive)
GI50 [17]: > 100 µM (inactive)
GI50 [18]: > 100 µM (inactive)
GI50 [19]: > 100 µM (inactive)
GI50 [20]: > 100 µM (inactive)
GI50 [21]: > 100 µM (inactive)
GI50 [22]: > 100 µM (inactive)
GI50 [58]: 0.427 µM (active)
GI50 [23]: > 100 µM (inactive)
GI50 [24]: > 100 µM (inactive)
GI50 [25]: > 100 µM (inactive)
GI50 [26]: > 100 µM (inactive)
GI50 [27]: > 100 µM (inactive)
GI50 [28]: > 100 µM (inactive)
GI50 [29]: > 100 µM (inactive)
GI50 [30]: > 100 µM (inactive)
GI50 [31]: > 100 µM
GI50 [32]: > 100 µM (inactive)
GI50 [33]: > 100 µM (inactive)
GI50 [34]: > 100 µM (inactive)
GI50 [35]: > 100 µM (inactive)
GI50 [36]: > 100 µM (inactive)
GI50 [37]: > 100 µM (inactive)
GI50 [38]: > 100 µM (inactive)
GI50 [39]: > 100 µM (inactive)
GI50 [40]: > 100 µM (inactive)
GI50 [41]: > 100 µM (inactive)
GI50 [42]: > 100 µM (inactive)
GI50 [43]: > 100 µM (inactive)
GI50 [45]: 31 µM (inactive)
GI50 [46]: 68.2 µM (inactive)
GI50 [47]: > 100 µM (inactive)
GI50 [48]: > 100 µM (inactive)
GI50 [59]: > 100 µM (inactive)
GI50 [49]: > 100 µM (inactive)
GI50 [50]: > 100 µM (inactive)
GI50 [51]: > 100 µM (inactive)
GI50 [52]: > 100 µM (inactive)
GI50 [53]: > 100 µM (inactive)
GI50 [54]: > 100 µM (inactive)
GI50 [55]: > 100 µM (inactive)
GI50 [56]: > 100 µM (inactive)
GI50 [57]: > 100 µM (inactive)
